According to patent publication US9580413B2, “Substituted pyrrolidines as ROS tyrosine kinase inhibitors” (NIPPON SHINYAKU CO., LTD., priority 2012, dated 2017):
Where a name gives a salt, the structure may show the parent alone.

Columns and labels:
FIG-ROS/BaF3 cell = molecular target: T1, FIG-ROS/BaF3 cell (Homo sapiens, UniProt P08922); test: Proliferation inhibitory activity test against FIG-ROS/BaF3 cell; type: cell-based; conditions: 3 days incubation, cell counting kit; read-out: Proliferation inhibitory activity against FIG-ROS/BaF3 cell (IC50)
T1 construct: fused on or other part: Q9HD26 (Golgi-associated PDZ and coiled-coil motif-containing protein)
T1 sequence (P08922 whole entry, stated change not applied, the tested form may be a part): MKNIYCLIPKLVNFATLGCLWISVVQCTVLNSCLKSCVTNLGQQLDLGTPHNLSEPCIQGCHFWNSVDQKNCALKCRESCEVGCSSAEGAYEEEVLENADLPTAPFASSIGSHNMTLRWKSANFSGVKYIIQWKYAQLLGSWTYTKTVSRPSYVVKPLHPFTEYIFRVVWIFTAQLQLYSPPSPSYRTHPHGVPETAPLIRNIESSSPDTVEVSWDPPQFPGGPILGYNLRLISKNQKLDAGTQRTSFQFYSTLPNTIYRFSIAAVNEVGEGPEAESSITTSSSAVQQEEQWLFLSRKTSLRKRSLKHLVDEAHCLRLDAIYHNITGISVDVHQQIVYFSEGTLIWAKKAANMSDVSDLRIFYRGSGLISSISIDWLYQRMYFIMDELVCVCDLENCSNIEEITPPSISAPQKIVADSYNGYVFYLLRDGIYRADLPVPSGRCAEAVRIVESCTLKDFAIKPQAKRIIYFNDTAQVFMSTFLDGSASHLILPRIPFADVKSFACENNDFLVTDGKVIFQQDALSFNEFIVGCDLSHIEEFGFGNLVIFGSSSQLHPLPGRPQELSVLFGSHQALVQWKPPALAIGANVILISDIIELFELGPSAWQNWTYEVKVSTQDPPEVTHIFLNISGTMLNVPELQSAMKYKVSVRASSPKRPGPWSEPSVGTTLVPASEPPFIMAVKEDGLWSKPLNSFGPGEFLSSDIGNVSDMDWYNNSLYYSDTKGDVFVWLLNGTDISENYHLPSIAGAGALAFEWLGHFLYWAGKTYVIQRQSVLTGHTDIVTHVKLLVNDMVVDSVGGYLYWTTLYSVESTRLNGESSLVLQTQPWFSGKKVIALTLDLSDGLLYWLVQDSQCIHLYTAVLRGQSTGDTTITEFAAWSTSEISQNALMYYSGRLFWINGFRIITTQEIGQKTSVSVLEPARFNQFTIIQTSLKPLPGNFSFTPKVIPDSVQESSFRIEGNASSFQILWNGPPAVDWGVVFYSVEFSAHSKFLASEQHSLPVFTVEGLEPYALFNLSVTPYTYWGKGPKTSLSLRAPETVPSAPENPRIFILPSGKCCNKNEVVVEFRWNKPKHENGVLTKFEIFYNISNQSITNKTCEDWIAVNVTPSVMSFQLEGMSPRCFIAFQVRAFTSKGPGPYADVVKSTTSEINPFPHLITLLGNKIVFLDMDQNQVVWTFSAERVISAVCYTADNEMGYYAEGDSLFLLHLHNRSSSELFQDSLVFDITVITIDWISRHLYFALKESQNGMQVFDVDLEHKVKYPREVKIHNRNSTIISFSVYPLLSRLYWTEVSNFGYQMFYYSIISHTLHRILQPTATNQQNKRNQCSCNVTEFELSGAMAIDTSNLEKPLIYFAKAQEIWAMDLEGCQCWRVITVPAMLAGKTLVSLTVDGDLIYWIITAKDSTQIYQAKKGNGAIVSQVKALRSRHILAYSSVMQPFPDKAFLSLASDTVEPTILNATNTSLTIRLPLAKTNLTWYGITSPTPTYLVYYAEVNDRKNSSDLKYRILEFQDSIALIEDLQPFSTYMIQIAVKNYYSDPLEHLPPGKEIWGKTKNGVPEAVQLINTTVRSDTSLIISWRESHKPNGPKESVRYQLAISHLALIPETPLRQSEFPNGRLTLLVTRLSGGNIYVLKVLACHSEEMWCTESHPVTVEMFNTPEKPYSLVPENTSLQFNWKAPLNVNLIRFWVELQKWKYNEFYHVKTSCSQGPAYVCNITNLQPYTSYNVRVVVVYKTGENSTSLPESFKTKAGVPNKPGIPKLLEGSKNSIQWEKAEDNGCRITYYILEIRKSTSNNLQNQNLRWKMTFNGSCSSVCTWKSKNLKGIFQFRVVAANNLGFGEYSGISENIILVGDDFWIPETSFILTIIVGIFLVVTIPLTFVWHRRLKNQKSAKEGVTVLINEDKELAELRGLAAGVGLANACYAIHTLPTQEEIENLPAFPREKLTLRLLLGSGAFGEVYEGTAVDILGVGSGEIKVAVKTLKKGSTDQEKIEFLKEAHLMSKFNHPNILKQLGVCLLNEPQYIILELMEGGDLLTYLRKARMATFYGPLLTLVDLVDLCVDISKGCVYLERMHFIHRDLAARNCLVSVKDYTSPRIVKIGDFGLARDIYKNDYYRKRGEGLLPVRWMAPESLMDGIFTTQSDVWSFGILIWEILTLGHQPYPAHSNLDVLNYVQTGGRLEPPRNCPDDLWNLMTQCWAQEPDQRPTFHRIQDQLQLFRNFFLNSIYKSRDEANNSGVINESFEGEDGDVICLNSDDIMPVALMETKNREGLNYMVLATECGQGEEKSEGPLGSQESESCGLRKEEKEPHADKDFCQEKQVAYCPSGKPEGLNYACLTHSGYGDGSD
Description: A BaF3 cell which had been transformed by introducing the FIG-ROS fusion gene (derived from U118MG human glioma cell) (FIG-ROS/BaF3 Cell) was prepared on a culture medium, seeded on a 96-well plate in the number of 1×10^3/100 μL per well, and then allowed to stand in a CO2 incubator (at 37° C. and 5% CO2). As the culture medium, 10% FBS (fetal bovine serum)-incorporated RPMI-1640 was used.
2. Proliferation Inhibitory Activity Test:
A test substance was dissolved in dimethyl sulfoxide (DMSO) to 10 mM and further diluted with DMSO to 100-fold to prepare a 100 μM solution. This was diluted with a 1% DMSO-incorporated medium to concentrations of 10-fold of the concentration to be measured (10,000, 1,000, 100, 10, and 1 nM). Each of the medicine solutions was added at 11 μL per well and mixed. To a control having no medicine added thereto, a 1% DMSO-incorporated medium was added, and incubated in a CO2 incubator (at 37° C. and 5% CO2) for 3 days. After completion of the incubation, the number of live cells was counted using a cell counting kit. First of all, each cell counting kit solution was added at 5 μL per well and mixed, and incubated in a CO2 incubator (at 37° C. and 5% CO2) for 4 hours. An absorbance at 450 nm was measured with a microplate reader (Model 3550, manufactured by BIO-RAD, Benchmark, manufactured by BIO-RAD, or iMARK, manufactured by BIO-RAD) with a reference wavelength of 650 nm.
(§1) 3. Analysis of Measurement Results:
(§2) A non-linear regression analysis was performed for the measured absorbance with an SAS system (SAS Institute Inc.), and a concentration of each of the test substances of inhibiting the cell proliferation at 50% (IC50) was calculated. The proliferation inhibitory activity (IC50, nM) of each of the test substances against the FIG-ROS/BaF3 cell is shown in Table 9.

JAK2 tyrosine kinase = molecular target: T2, JAK2 tyrosine kinase (Homo sapiens, UniProt O60674); test: JAK2 tyrosine kinase inhibitory activity test (ELISA); type: biochemical, humans; conditions: 25 μM ATP substrate solution, 30° C., one hour
T2 construct: purchased Carna Biosciences, Inc
Description: (§3) 1. Preparation of Test Substance:
(§4) A test substance was dissolved in dimethyl sulfoxide (DMSO) to 10 mM and further diluted with DMSO to concentrations of 100-fold of the concentrations to be measured (100, 10, 1, 0.1, and 0.01 μM). Furthermore, the resultant was diluted with an assay buffer to 20-fold, thereby preparing a solution as a test substance solution. A solution prepared by diluting DMSO with an assay buffer to 20-fold was used as a negative control. A buffer containing 15 mM Tris-Cl (pH 7.5), 0.01 (v/v) % Tween-20, and 1 mM dithiothreitol was used as the assay buffer.
(§5) 2. Measurement of ROS Tyrosine Kinase Activity and JAK2 Tyrosine Kinase Activity:
(§6) The activity was measured by adopting the ELISA method. […] Finally, an ROS kinase or a JAK2 kinase (derived from humans, Carna Biosciences, Inc.) (diluted with the assay buffer to 0.25 nM) was added to the plate at 20 μL per well, and the resulting mixture was stirred. A reaction was performed at 30° C. for one hour. After the plate was washed 4 times with a washing buffer (50 mM Tris-Cl (pH 7.5), 150 mM NaCl, and 0.02 (v/v) % Tween-20), a blocking buffer (0.1% bovine serum albumin, 50 mM Tris-Cl (pH 7.5), 150 mM NaCl, and 0.02 (v/v) % Tween-20) was added to the plate at 150 μL per well, and incubated at 30° C. for 30 minutes. The blocking buffer was then removed, and a horse radish peroxidase-labeled anti-phosphorylated tyrosine antibody (BD Biosciences, Inc.) (diluted with the blocking buffer to 10,000-fold) was added to the plate at 100 μL per well, and the plate was incubated at 30° C. for 30 minutes. After the plate was washed 4 times with the washing buffer, a 3,3′,5,5′-tetramethylbenzidine solution (Sigma-Aldrich Co., Ltd.) was added to the plate at 100 μL per well to develop the color for 10 minutes. The reaction was stopped by adding 0.1 M sulfuric acid at 100 μL per well. An absorbance at 450 nm was measured with a microplate reader (Model 3550, manufactured by BIO-RAD, Benchmark, manufactured by BIO-RAD, or iMARK, manufactured by BIO-RAD).
as §1
as §2, with “ROS tyrosine kinase activity or JAK2 tyrosine kinase activity” for “cell proliferation”, “The” for “The proliferation”, “ROS tyrosine kinase or JAK2 tyrosine kinase” for “FIG-ROS/BaF3 cell”, “Tables 6 to 8.” for “Table 9.”

ROS tyrosine kinase = molecular target: T3, ROS tyrosine kinase (Homo sapiens, UniProt P08922); test: ROS tyrosine kinase inhibitory activity test (ELISA); type: biochemical, humans; conditions: 25 μM ATP substrate solution, 30° C., one hour
T3 construct: purchased Carna Biosciences, Inc
T3 sequence (P08922 28-2347): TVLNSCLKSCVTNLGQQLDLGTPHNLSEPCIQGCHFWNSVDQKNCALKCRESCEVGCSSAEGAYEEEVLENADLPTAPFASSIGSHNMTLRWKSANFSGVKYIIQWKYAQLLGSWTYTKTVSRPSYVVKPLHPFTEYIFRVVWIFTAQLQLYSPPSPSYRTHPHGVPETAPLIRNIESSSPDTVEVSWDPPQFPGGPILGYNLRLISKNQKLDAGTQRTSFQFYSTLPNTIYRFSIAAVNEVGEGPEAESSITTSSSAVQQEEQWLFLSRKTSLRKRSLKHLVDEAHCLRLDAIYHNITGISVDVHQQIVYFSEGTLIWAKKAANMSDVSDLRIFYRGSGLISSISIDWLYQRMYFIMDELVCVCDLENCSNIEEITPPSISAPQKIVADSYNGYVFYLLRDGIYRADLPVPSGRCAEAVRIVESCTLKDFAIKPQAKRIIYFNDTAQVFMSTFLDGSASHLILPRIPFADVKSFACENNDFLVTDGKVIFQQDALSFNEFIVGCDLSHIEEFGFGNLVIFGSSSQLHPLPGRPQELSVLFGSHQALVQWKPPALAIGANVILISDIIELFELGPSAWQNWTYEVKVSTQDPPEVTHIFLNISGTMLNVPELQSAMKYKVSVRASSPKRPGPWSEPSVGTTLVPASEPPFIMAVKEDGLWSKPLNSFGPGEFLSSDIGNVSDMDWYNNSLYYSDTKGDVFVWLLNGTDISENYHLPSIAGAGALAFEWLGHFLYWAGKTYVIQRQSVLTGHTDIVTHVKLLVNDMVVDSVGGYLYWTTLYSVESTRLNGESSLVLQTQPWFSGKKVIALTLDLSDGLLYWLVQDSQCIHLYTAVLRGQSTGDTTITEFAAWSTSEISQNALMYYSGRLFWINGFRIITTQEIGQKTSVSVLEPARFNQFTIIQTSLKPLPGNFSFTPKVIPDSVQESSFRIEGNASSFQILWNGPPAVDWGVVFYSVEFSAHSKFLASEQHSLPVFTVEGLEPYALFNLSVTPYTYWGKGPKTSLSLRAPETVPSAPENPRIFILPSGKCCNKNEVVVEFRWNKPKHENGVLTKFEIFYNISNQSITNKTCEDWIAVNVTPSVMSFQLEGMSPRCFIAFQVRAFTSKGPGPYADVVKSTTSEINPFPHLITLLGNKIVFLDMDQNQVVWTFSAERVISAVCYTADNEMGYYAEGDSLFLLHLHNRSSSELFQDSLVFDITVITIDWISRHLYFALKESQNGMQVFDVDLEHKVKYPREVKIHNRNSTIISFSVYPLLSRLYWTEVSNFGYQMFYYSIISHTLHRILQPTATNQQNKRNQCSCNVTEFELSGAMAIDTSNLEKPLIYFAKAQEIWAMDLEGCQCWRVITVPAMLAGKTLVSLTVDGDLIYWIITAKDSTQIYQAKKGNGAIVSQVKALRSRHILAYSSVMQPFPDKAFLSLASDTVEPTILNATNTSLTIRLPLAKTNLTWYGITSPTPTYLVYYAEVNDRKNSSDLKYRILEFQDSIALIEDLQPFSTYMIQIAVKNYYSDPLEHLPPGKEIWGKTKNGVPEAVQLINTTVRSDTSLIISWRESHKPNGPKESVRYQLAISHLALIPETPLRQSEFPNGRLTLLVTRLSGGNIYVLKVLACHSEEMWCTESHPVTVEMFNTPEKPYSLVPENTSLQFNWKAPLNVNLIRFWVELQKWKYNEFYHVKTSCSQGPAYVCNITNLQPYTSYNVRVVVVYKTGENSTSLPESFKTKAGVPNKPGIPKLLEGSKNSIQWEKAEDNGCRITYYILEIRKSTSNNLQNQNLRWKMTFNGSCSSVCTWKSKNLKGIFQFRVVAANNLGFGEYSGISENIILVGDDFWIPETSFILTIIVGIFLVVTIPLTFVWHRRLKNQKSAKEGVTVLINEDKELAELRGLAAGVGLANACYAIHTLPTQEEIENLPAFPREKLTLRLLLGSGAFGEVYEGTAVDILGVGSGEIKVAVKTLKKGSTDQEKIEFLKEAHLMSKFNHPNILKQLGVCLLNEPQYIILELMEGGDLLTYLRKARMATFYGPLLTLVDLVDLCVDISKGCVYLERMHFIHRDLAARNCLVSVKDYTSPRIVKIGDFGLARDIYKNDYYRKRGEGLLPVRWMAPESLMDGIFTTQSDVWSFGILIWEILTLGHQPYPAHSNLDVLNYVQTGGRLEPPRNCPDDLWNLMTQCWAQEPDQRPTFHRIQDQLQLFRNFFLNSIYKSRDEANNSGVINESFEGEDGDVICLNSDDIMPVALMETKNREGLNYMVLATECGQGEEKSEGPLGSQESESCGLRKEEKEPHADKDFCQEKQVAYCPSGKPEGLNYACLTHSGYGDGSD
Description: as §3, §4, §5, §6, §1
as §2, with “ROS tyrosine kinase activity or JAK2 tyrosine kinase activity” for “cell proliferation”, “The” for “The proliferation”, “ROS tyrosine kinase or JAK2 tyrosine kinase” for “FIG-ROS/BaF3 cell”, “Tables 6 to 8.” for “Table 9.”

Row | SMILES | GI50 (FIG-ROS/BaF3 cell) [nM] | IC50 (JAK2 tyrosine kinase) [nM] | IC50 (ROS tyrosine kinase) [nM]
1 | COc1c(Nc2ncc(C#N)s2)nc(N2CCCC2c2ccc(C)cc2)nc1-c1ccc(C(N)=O)cc1 (stereo not drawn) [Example 4, 4-{6-[(5-Cyano-1,3-thiazol-2-yl)amino]-5-methoxy-2-[2-(4-methylphenyl)pyrrolidin-1-yl]pyrimidin-4-yl}benzamide] | 2.6 | > 1000 | 35
2 | COC(=O)c1cc(Nc2ncc(C#N)s2)nc(N2CCCC2c2ccc(C)cc2)n1 (stereo not drawn) [Example 6, Methyl 6-[(5-cyano-1,3-thiazol-2-yl)amino]-2-[2-(4-methylphenyl)pyrrolidin-1-yl]pyrimidine-4-carboxylate] | 23 | 92 | 7.1
3 | COc1c(Nc2ncc(C#N)s2)nc(N2CCCC2c2ccc(C)cc2)nc1-c1cnco1 (stereo not drawn) [Example 11, 2-({5-Methoxy-2-[2-(4-methylphenyl)pyrrolidin-1-yl]-6-(1,3-oxazol-5-yl)pyrimidin-4-yl}amino)-1,3-thiazole-5-carbonitrile] | 2.2 | > 1000 | 2.7
4 | Cc1ccc(C2CCCN2c2nc(Nc3ncc(C#N)s3)cc(C(=O)N[C@H](C)CO)n2)cc1 (stereo partly drawn) [Example 12, 6-[(5-Cyano-1,3-thiazol-2-yl)amino]-N-[(2R)-1-hydroxypropan-2-yl]-2-[2-(4-methylphenyl)pyrrolidin-1-yl]pyrimidine-4-carboxamide] | 24 | 540 | 21
5 | COc1c(Nc2ncc(C#N)s2)nc(N2CCCC2c2ccc(C)cc2)nc1-c1ccc(S(C)(=O)=O)cc1 (stereo not drawn) [Example 13, 2-({5-Methoxy-2-[2-(4-methylphenyl)pyrrolidin-1-yl]-6-[4-(methylsulfonyl)phenyl]pyrimidin-4-yl}amino)-1,3-thiazole-5-carbonitrile] | 3.5 | ≥ 1000 | 44
6 | COc1ccc(-c2nc(N3CCCC3c3ccc(C)cc3)nc(Nc3ncc(C#N)s3)c2C)cn1 (stereo not drawn) [Example 15, 2-({6-(6-Methoxypyridin-3-yl)-5-methyl-2-[2-(4-methylphenyl)pyrrolidin-1-yl]pyrimidin-4-yl}amino)-1,3-thiazole-5-carbonitrile] | 20 | > 1000 | 16
7 | N#Cc1cnc(Nc2nc(N3CCCC3c3ccc(F)cc3)cnc2-c2ccncc2)s1 (stereo not drawn) [Example 26, 2-({6-[2-(4-Fluorophenyl)pyrrolidin-1-yl]-3-(pyridin-4-yl)pyrazin-2-yl}amino)-1,3-thiazole-5-carbonitrile] | 10 | > 1000 | 12
8 | Cc1ccc(C2CCCN2c2cc(C(F)(F)F)cc(Nc3ncc(C#N)s3)n2)cc1 (stereo not drawn) [Example 27, 2-({6-[2-(4-Methylphenyl)pyrrolidin-1-yl]-4-(trifluoromethyl)pyridin-2-yl}amino)-1,3-thiazole-5-carbonitrile] | 27 | > 1000 | 65
9 | COc1cc(OC)cc(C2CCCN2c2cncc(Nc3ncc(C#N)s3)n2)c1 (stereo not drawn) [Example 32, 2-({6-[2-(3,5-Dimethoxyphenyl)pyrrolidin-1-yl]pyrazin-2-yl}amino)-1,3-thiazol-5-carbonitrile] | 33 | > 1000 | 4.4
10 | N#Cc1cnc(Nc2cncc(N3CCCC3c3ccc(C(F)(F)F)cc3)n2)s1 (stereo not drawn) [Example 39, 2-[(6-{2-[4-(Trifluoromethyl)phenyl]pyrrolidin-1-yl}pyrazin-2-yl)amino]-1,3-thiazole-5-carbonitrile] | 4.5 | > 1000 | 12
11 | N#Cc1cnc(Nc2cncc(N3CCCC3c3ccc(Cl)cc3)n2)s1 (stereo not drawn) [Example 48, 2-({6-[2-(4-Chlorophenyl)pyrrolidin-1-yl]pyrazin-2-yl}amino)-1,3-thiazole-5-carbonitrile] | 1.9 | 31 | 0.6
12 | COc1c(Nc2ncc(C#N)s2)nc(N2CCCC2c2ccc(C)cc2)nc1-c1ccc(F)nc1 (stereo not drawn) [Example 50, 2-({6-(6-Fluoropyridin-3-yl)-5-methoxy-2-[2-(4-methylphenyl)pyrrolidin-1-yl]pyrimidin-4-yl}amino)-1,3-thiazole-5-carbonitrile] | 9.4 | ≥ 1000 | 12

Second part, the compound after the results:

Row | GI50 (FIG-ROS/BaF3 cell) [nM] | IC50 (JAK2 tyrosine kinase) [nM] | IC50 (ROS tyrosine kinase) [nM] | SMILES
13 | 2.2 | 76 | 1.6 | Cc1ccc([C@@H]2CCCN2c2cncc(Nc3ncc(C#N)s3)n2)cc1 [Example 1, 2-({6-[(2S)-2-(4-Methylphenyl)pyrrolidin-1-yl]pyrazin-2-yl}amino)-1,3-thiazole-5-carbonitrile hydrochloride]
14 | 83 | 37 | 0.6 | Cc1ccc(C2CCCN2c2nc(Nc3ncc(C#N)s3)cc(C(=O)O)n2)cc1 (stereo not drawn) [Example 7, 6-[(5-Cyano-1,3-thiazol-2-yl)amino]-2-[2-(4-methylphenyl)pyrrolidin-1-yl]pyrimidine-4-carboxylic acid]
15 | 2.1 | 500 | 0.6 | COc1c(C)nc(N2CCC[C@H]2c2ccc(C)cc2)nc1Nc1ncc(C#N)s1 [Example 9, 2-({5-Methoxy-6-methyl-2-[(2S)-2-(4-methylphenyl)pyrrolidin-1-yl]pyrimidin-4-yl}amino)-1,3-thiazole-5-carbonitrile maleate]
16 | 2.9 | 220 | 2.6 | COc1cnc(N2CCCC2c2ccc(C)cc2)nc1Nc1ncc(C#N)s1 (stereo not drawn) [Example 19, 2-({5-Methoxy-2-[2-(4-methylphenyl)pyrrolidin-1-yl]pyrimidin-4-yl}amino)-1,3-thiazole-5-carbonitrile]
17 | 4.3 | 140 | 1.3 | Cc1ccc([C@@H]2CCCN2c2cnc(C)c(Nc3ncc(C)s3)n2)cc1 [Example 29, 3-Methyl-6-[(2S)-2-(4-methylphenyl)pyrrolidin-1-yl]-N-(5-methyl-1,3-thiazol-2-yl)pyrazine-2-amine]
18 | 12 | > 1000 | 4.1 | Cc1ccc([C@@H]2CCCN2c2cnc(C3CC3)c(Nc3ncc(C)s3)n2)cc1 [Example 34, 3-Cyclopropyl-6-[(2S)-2-(4-methylphenyl)pyrrolidin-1-yl]-N-(5-methyl-1,3-thiazol-2-yl)pyrazine-2-amine]
19 | 2.1 | > 1000 | 4.2 | Cc1ccc(C2CCCN2c2nc(Nc3ncc(C#N)s3)c(C)nc2C)cc1 (stereo not drawn) [Example 43, 2-({3,5-Dimethyl-6-[2-(4-methylphenyl)pyrrolidin-1-yl]pyrazin-2-yl}amino)-1,3-thiazole-5-carbonitrile]
20 | 7.6 | 210 | 7.3 | CCc1cnc(Nc2cncc(N3CCCC3c3ccc(C)cc3)n2)s1 (stereo not drawn) [Example 45, N-(5-Ethyl-1,3-thiazol-2-yl)-6-[2-(4-methylphenyl)pyrrolidin-1-yl]pyrazine-2-amine]
